Measured values reported in ChEMBL document CHEMBL4837183, “Antiproliferative Bufadienolides from the Bulbs of Drimia altissima” (2021).

Experiments:
Format in all cases: functional
IGROV-1 = assay: Growth inhibition of human IGROV-1 cells measured after 48 hrs by SRB assay
Hs-578T = assay: Growth inhibition of human Hs-578T cells measured after 48 hrs by SRB assay
BT-549 = assay: Growth inhibition of human BT-549 cells measured after 48 hrs by SRB assay
SW-620 = assay: Growth inhibition of human SW-620 cells measured after 48 hrs by SRB assay
SNB-75 = assay: Growth inhibition of human SNB-75 cells measured after 48 hrs by SRB assay
NCI-H522 = assay: Growth inhibition of human NCI-H522 cells measured after 48 hrs by SRB assay
LOX IMVI = assay: Growth inhibition of human LOX IMVI cells measured after 48 hrs by SRB assay
A549 = assay: Growth inhibition of human A549 cells measured after 48 hrs by SRB assay
SR = assay: Growth inhibition of human SR cells measured after 48 hrs by SRB assay
SK-MEL-28 = assay: Growth inhibition of human SK-MEL-28 cells measured after 48 hrs by SRB assay
NCI/ADR-RES = assay: Growth inhibition of human NCI/ADR-RES cells measured after 48 hrs by SRB assay
HOP-92 = assay: Growth inhibition of human HOP-92 cells measured after 48 hrs by SRB assay
ACHN = assay: Growth inhibition of human ACHN cells measured after 48 hrs by SRB assay
HT-29 = assay: Growth inhibition of human HT-29 cells measured after 48 hrs by SRB assay
CAKI-1 = assay: Growth inhibition of human CAKI-1 cells measured after 48 hrs by SRB assay
UACC-62 = assay: Growth inhibition of human UACC-62 cells measured after 48 hrs by SRB assay
A498 = assay: Growth inhibition of human A498 cells measured after 48 hrs by SRB assay
K562 = assay: Growth inhibition of human K562 cells measured after 48 hrs by SRB assay
Malme-3M = assay: Growth inhibition of human Malme-3M cells measured after 48 hrs by SRB assay
SK-MEL-2 = assay: Growth inhibition of human SK-MEL-2 cells measured after 48 hrs by SRB assay
HCC 2998 = assay: Growth inhibition of human HCC 2998 cells measured after 48 hrs by SRB assay
KM12 = assay: Growth inhibition of human KM12 cells measured after 48 hrs by SRB assay
786-0 = assay: Growth inhibition of human 786-0 cells measured after 48 hrs by SRB assay
MOLT-4 = assay: Growth inhibition of human MOLT-4 cells measured after 48 hrs by SRB assay
OVCAR-8 = assay: Growth inhibition of human OVCAR-8 cells measured after 48 hrs by SRB assay
TK-10 = assay: Growth inhibition of human TK-10 cells measured after 48 hrs by SRB assay
T47D = assay: Growth inhibition of human T47D cells measured after 48 hrs by SRB assay
MDA-MB-468 = assay: Growth inhibition of human MDA-MB-468 cells measured after 48 hrs by SRB assay
SF-268 = assay: Growth inhibition of human SF-268 cells measured after 48 hrs by SRB assay
SF-539 = assay: Growth inhibition of human SF-539 cells measured after 48 hrs by SRB assay
UACC-257 = assay: Growth inhibition of human UACC-257 cells measured after 48 hrs by SRB assay
MCF7 = assay: Growth inhibition of human MCF7 cells measured after 48 hrs by SRB assay
U-251 = assay: Growth inhibition of human U-251 cells measured after 48 hrs by SRB assay
PC-3 = assay: Growth inhibition of human PC-3 cells measured after 48 hrs by SRB assay
NCI-H23 = assay: Growth inhibition of human NCI-H23 cells measured after 48 hrs by SRB assay
HCT-116 = assay: Growth inhibition of human HCT-116 cells measured after 48 hrs by SRB assay
M14 = assay: Growth inhibition of human M14 cells measured after 48 hrs by SRB assay
SK-MEL-5 = assay: Growth inhibition of human SK-MEL-5 cells measured after 48 hrs by SRB assay
NCI-H460 = assay: Growth inhibition of human NCI-H460 cells measured after 48 hrs by SRB assay
RXF 393 = assay: Growth inhibition of human RXF 393 cells measured after 48 hrs by SRB assay
HCT-15 = assay: Growth inhibition of human HCT-15 cells measured after 48 hrs by SRB assay
HOP-62 = assay: Growth inhibition of human HOP-62 cells measured after 48 hrs by SRB assay
NCI-H322M = assay: Growth inhibition of human NCI-H322M cells measured after 48 hrs by SRB assay
SN12C = assay: Growth inhibition of human SN12C cells measured after 48 hrs by SRB assay
OVCAR-5 = assay: Growth inhibition of human OVCAR-5 cells measured after 48 hrs by SRB assay
NCI-H226 = assay: Growth inhibition of human NCI-H226 cells measured after 48 hrs by SRB assay
OVCAR-3 = assay: Growth inhibition of human OVCAR-3 cells measured after 48 hrs by SRB assay
UO-31 = assay: Growth inhibition of human UO-31 cells measured after 48 hrs by SRB assay
MDA-MB-435 = assay: Growth inhibition of human MDA-MB-435 cells measured after 48 hrs by SRB assay
COLO 205 = assay: Growth inhibition of human COLO 205 cells measured after 48 hrs by SRB assay
HL-60 = assay: Growth inhibition of human HL-60 cells measured after 48 hrs by SRB assay
SK-OV-3 = assay: Growth inhibition of human SK-OV-3 cells measured after 48 hrs by SRB assay
CCRF-CEM = assay: Growth inhibition of human CCRF-CEM cells measured after 48 hrs by SRB assay
SNB-19 = assay: Growth inhibition of human SNB-19 cells measured after 48 hrs by SRB assay
MDA-MB-231 = assay: Growth inhibition of human MDA-MB-231 cells measured after 48 hrs by SRB assay
DU-145 = assay: Growth inhibition of human DU-145 cells measured after 48 hrs by SRB assay
SF-295 = assay: Growth inhibition of human SF-295 cells measured after 48 hrs by SRB assay

C[C@]12CC[C@H]3[C@@H](CC[C@H]4C[C@@H](O)CC[C@@]43C=O)[C@@]1(O)CC[C@@H]2c1ccc(=O)oc1
GI50 (IGROV-1): 5.06 µM | GI50 (Hs-578T): 0.739 µM | GI50 (BT-549): 1.73 µM | GI50 (SW-620): 1.34 µM | GI50 (SNB-75): 3.18 µM | GI50 (NCI-H522): 0.694 µM | GI50 (LOX IMVI): 2.37 µM | GI50 (A549): 0.562 µM | GI50 (SR): 2.03 µM | GI50 (SK-MEL-28): 6.05 µM | GI50 (NCI/ADR-RES): 1.49 µM | GI50 (HOP-92): 3.22 µM | GI50 (ACHN): 0.502 µM | GI50 (HT-29): 2.7 µM | GI50 (CAKI-1): 1.5 µM | GI50 (UACC-62): 3.2 µM | GI50 (A498): 1.13 µM | GI50 (K562): 4.28 µM | GI50 (Malme-3M): 3.47 µM | GI50 (SK-MEL-2): 4.3 µM | GI50 (HCC 2998): 8.74 µM | GI50 (KM12): 6.25 µM | GI50 (786-0): 1.76 µM | GI50 (MOLT-4): 0.665 µM | GI50 (OVCAR-8): 2.83 µM | GI50 (TK-10): 2.58 µM | GI50 (T47D): 4.74 µM | GI50 (MDA-MB-468): 8.23 µM | GI50 (SF-268): 1.07 µM | GI50 (SF-539): 1.47 µM | GI50 (UACC-257): 4.5 µM | GI50 (MCF7): 0.99 µM | GI50 (U-251): 4.47 µM | GI50 (PC-3): 3.53 µM | GI50 (NCI-H23): 1.71 µM | GI50 (HCT-116): 0.633 µM | GI50 (M14): 4.14 µM | GI50 (SK-MEL-5): 2.35 µM | GI50 (NCI-H460): 0.556 µM | GI50 (RXF 393): 0.418 µM | GI50 (HCT-15): 2.15 µM | GI50 (HOP-62): 1.1 µM | GI50 (NCI-H322M): 3.12 µM | GI50 (SN12C): 0.877 µM | GI50 (OVCAR-5): 5.21 µM | GI50 (NCI-H226): 6.87 µM | GI50 (OVCAR-3): 1.71 µM | GI50 (UO-31): 1.6 µM | GI50 (MDA-MB-435): 3.5 µM | GI50 (COLO 205): 6.52 µM | GI50 (HL-60): 3.41 µM | GI50 (SK-OV-3): 5.63 µM | GI50 (CCRF-CEM): 1.07 µM | GI50 (SNB-19): 6.41 µM | GI50 (MDA-MB-231): 14.1 µM | GI50 (DU-145): 1.18 µM | GI50 (SF-295): 1.98 µM

CC(=O)OC[C@H]1O[C@@H](O[C@@H]2C=C3CC[C@@H]4[C@H](C(=O)C[C@]5(C)[C@@H](c6ccc(=O)oc6)CC[C@]45O)[C@@]3(C)CC2)[C@H](OC(C)=O)[C@@H](OC(C)=O)[C@@H]1OC(C)=O
GI50 (IGROV-1): > 10 µM | GI50 (Hs-578T): 3.79 µM | GI50 (BT-549): 5.01 µM | GI50 (SW-620): 7.06 µM | GI50 (SNB-75): > 10 µM | GI50 (NCI-H522): 3.96 µM | GI50 (LOX IMVI): > 10 µM | GI50 (A549): 4.78 µM | GI50 (SR): > 10 µM | GI50 (SK-MEL-28): > 10 µM | GI50 (NCI/ADR-RES): > 10 µM | GI50 (HOP-92): > 10 µM | GI50 (ACHN): 2.32 µM | GI50 (HT-29): > 10 µM | GI50 (CAKI-1): 7.28 µM | GI50 (UACC-62): > 10 µM | GI50 (A498): 2.89 µM | GI50 (K562): > 10 µM | GI50 (Malme-3M): 9.73 µM | GI50 (SK-MEL-2): > 10 µM | GI50 (HCC 2998): > 10 µM | GI50 (KM12): > 10 µM | GI50 (786-0): 7.33 µM | GI50 (MOLT-4): 5.12 µM | GI50 (OVCAR-8): > 10 µM | GI50 (TK-10): 6.22 µM | GI50 (T47D): > 10 µM | GI50 (MDA-MB-468): > 10 µM | GI50 (SF-268): 5.64 µM | GI50 (SF-539): 6.01 µM | GI50 (UACC-257): > 10 µM | GI50 (MCF7): 7.71 µM | GI50 (U-251): > 10 µM | GI50 (PC-3): > 10 µM | GI50 (NCI-H23): 8.31 µM | GI50 (HCT-116): 4.44 µM | GI50 (M14): > 10 µM | GI50 (SK-MEL-5): 5.09 µM | GI50 (NCI-H460): 3.53 µM | GI50 (RXF 393): 2.31 µM | GI50 (HCT-15): > 10 µM | GI50 (HOP-62): 6.88 µM | GI50 (NCI-H322M): > 10 µM | GI50 (SN12C): 4.85 µM | GI50 (OVCAR-5): > 10 µM | GI50 (NCI-H226): > 10 µM | GI50 (OVCAR-3): 4 µM | GI50 (UO-31): 6.06 µM | GI50 (MDA-MB-435): > 10 µM | GI50 (COLO 205): > 10 µM | GI50 (HL-60): 7.37 µM | GI50 (SK-OV-3): > 10 µM | GI50 (CCRF-CEM): 6.97 µM | GI50 (SNB-19): > 10 µM | GI50 (MDA-MB-231): > 10 µM | GI50 (DU-145): 6.1 µM | GI50 (SF-295): 7.35 µM
